# Literature values, collected in US20120264961A1, “FE3O4-M(AU-LIKE)-NANOPARTICLES FOR ANTIBODY-CONSERVING TARGET-SPECIFIC PLATIN DELIVERY” (Brown University, priority 2009, published 2012).
# Settings: water solubility
compound,measurement,value
N.N.O=C([O-])C1(C(=O)[O-])CCC1.[Pt+2] [carboplatin],solubility,22 mg/mL
